Assay results published in patent US4401595A, “4-Allyl azetidinone intermediate for β-lactam antibacterial agents” (Beecham Group Limited, priority 1977, dated 1983).
≈ marks a conversion by molar mass, not a printed value. Read-outs that look alike come from different tables or passages of the source.

Key:
Klebsiella aerogenes A = assay: MIC in agar; type: cell-based; details: read-out: MIC, concentration required to inhibit the growth
Shigella sonnei MB 11967 = assay: MIC in agar; type: cell-based; details: MB11967, read-out: MIC, concentration required to inhibit the growth
Staph. aureus Russell = assay: MIC in agar; type: cell-based; details: Staphylococcus aureus, read-out: MIC, concentration required to inhibit the growth
Staph. aureus Oxford = assay: MIC in agar; type: cell-based; details: Staphylococcus aureus, read-out: concentration required to inhibit the growth
Enterobacter cloacae N1 = assay: MIC in agar; type: cell-based; details: read-out: concentration required to inhibit the growth
Serratia marcescens US20 = assay: MIC in agar; type: cell-based
[1] = target: β-lactamase, Enterobacter P99 (Enterobacter cloacae, UniProt P05364); assay: β-lactamase inhibition I50; type: biochemical
[2] = target: β-lactamase, Pseudomonas aeruginosa A (Pseudomonas aeruginosa, UniProt P24735); assay: β-lactamase inhibition I50; type: biochemical
[3] = target: β-lactamase, Escherichia coli JT4 (Escherichia coli, UniProt P62593); assay: β-lactamase inhibition I50; type: biochemical
[4] = target: β-lactamase, Staphylococcus aureus Russell (Staphylococcus aureus, UniProt P00807); assay: β-lactamase inhibition I50; type: biochemical
Bacillus subtilis A = assay: MIC in agar; type: cell-based; details: read-out: MIC, concentration required to inhibit the growth
Staph. aureus 1517 = assay: MIC in agar; type: cell-based; details: Staphylococcus aureus, read-out: MIC, concentration required to inhibit the growth
Strep pyogenes CN10 = assay: MIC in agar; type: cell-based; details: read-out: concentration required to inhibit the growth
E. coli 0111 = assay: MIC in agar; type: cell-based; details: Escherichia coli, read-out: concentration required to inhibit the growth
Proteus mirabilis C977 = assay: MIC in agar; type: cell-based; details: read-out: concentration required to inhibit the growth
[5] = test system: Salmonella typhimurium CT10; assay: MIC in agar; type: cell-based; details: Salmonella enterica, read-out: concentration required to inhibit the growth
Citrobacter freundii E8 = assay: MIC in agar; type: cell-based; details: read-out: MIC, concentration required to inhibit the growth
Proteus morganii I 580 = assay: MIC in agar; type: cell-based; details: Morganella morganii, I580, read-out: concentration required to inhibit the growth
Proteus rettgeri WM16 = assay: MIC in agar; type: cell-based; details: Providencia rettgeri, read-out: concentration required to inhibit the growth
Proteus vulgaris WO 91 = assay: MIC in agar; type: cell-based; details: WO91, read-out: concentration required to inhibit the growth
Klebsiella aerogenes = assay: MIC in agar; type: cell-based; details: Klebsiella aerogenes (strain not given), read-out: concentration required to inhibit the growth
Salmonella typhimurium = assay: MIC in agar; type: cell-based; details: Salmonella enterica, Salmonella typhimurium (strain not given), read-out: concentration required to inhibit the growth
Strep pneumoniae = assay: MIC in agar; type: cell-based; details: read-out: concentration required to inhibit the growth
Strep. pyogenes = assay: MIC in agar; type: cell-based; details: Streptococcus pyogenes, Strep. pyogenes (strain not given), read-out: concentration required to inhibit the growth
[6] = target: β-lactamase, Proteus mirabilis C889; assay: β-lactamase inhibition I50; type: biochemical
[7] = target: β-lactamase, Klebsiella aerogenes E70; assay: β-lactamase inhibition I50; type: biochemical
[8] = target: β-lactamase, Pseudomonas dalgleish (Pseudomonas aeruginosa, UniProt P16897); assay: β-lactamase inhibition I50; type: biochemical
Strep faecalis I = assay: MIC in agar; type: cell-based; details: read-out: concentration required to inhibit the growth
Pseudomonas aeruginosa A = assay: MIC in agar; type: cell-based; details: read-out: concentration required to inhibit the growth
[9] = Serratia marcescens US20, read-out: concentration required to inhibit the growth

β-lactamase, Staphylococcus aureus Russell, sequence (P00807 25-281): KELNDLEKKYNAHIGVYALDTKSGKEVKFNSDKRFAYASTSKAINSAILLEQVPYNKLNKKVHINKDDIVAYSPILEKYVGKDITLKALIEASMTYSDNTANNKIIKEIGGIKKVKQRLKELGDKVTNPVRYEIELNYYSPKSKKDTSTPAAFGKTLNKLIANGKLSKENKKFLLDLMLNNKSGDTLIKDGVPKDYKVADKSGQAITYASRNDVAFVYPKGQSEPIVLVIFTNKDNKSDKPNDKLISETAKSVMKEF
β-lactamase, Enterobacter P99, sequence (P05364 21-381): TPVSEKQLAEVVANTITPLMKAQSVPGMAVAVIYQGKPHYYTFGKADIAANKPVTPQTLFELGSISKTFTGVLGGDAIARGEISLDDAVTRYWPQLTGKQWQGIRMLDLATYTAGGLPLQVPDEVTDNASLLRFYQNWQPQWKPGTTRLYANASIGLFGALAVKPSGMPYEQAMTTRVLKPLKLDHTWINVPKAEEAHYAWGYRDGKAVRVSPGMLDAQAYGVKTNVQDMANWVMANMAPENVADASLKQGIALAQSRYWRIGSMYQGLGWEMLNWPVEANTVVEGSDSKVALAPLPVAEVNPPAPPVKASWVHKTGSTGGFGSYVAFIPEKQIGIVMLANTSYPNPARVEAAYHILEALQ
β-lactamase, Escherichia coli JT4, sequence (P62593 24-286 limits assumed): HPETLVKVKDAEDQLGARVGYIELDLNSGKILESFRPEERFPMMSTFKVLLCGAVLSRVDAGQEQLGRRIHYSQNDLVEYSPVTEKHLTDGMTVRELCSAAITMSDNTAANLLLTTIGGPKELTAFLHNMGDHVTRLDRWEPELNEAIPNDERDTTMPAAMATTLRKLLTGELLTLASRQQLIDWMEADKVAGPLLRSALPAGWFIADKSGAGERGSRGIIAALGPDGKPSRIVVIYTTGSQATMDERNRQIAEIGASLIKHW
β-lactamase, Pseudomonas aeruginosa A, sequence (P24735 27-397): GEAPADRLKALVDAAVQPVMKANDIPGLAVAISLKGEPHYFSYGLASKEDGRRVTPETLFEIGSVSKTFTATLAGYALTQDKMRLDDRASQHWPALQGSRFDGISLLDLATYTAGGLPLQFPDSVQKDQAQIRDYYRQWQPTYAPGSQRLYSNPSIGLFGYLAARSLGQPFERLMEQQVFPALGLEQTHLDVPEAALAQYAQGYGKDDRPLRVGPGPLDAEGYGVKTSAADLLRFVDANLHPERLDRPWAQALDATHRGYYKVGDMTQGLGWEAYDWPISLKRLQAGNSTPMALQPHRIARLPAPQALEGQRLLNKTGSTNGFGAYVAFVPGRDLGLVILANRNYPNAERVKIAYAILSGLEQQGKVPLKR
β-lactamase, Pseudomonas dalgleish, sequence (P16897 18-288): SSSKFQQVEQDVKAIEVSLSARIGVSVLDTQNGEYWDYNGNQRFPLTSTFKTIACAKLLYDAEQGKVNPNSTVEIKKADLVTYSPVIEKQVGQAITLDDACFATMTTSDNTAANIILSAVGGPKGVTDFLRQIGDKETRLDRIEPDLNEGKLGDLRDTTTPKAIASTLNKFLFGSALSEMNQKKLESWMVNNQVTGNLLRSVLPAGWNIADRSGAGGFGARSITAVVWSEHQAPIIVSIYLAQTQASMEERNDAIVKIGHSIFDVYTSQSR

Structure (SMILES): CC(C)(O)[C@H]1C(=O)N2C(C(=O)OCc3ccccc3)=CC[C@@H]12 (relative stereo) [Example 4 cis-isomer, Benzyl 6-(2-hydroxy-2-propyl)-7-oxo-1-azabicyclo[3,2,0]hept-2-ene-2-carboxylate]
- MIC (Klebsiella aerogenes A): ≤ 2 µg/mL
- MIC (Shigella sonnei MB 11967): ≤ 2 µg/mL
- MIC (Staph. aureus Russell): ≤ 2 µg/mL
- MIC (Staph. aureus Oxford): ≤ 2 µg/mL
- MIC (Enterobacter cloacae N1): 20 µg/mL (≈ 66.4 µM)
- MIC (Serratia marcescens US20; [9]): 20 µg/mL (≈ 66.4 µM)

Structure (SMILES): O=C(OCc1ccccc1)C1=CC[C@H]2[C@@H](C3(O)CCCCC3)C(=O)N12 (relative stereo) [compound 34, Benzyl 6-(1-hydroxycyclohex-1-yl)-7-oxo-1-azabicyclo[3,2,0]hept-2-ene-2-carboxylate]
- IC50 [1]: 14.6 µM
- IC50 [2]: 4.1 µM
- IC50 [3]: 46.9 µM
- IC50 [4]: 13.5 µM

Structure (SMILES): COC(=O)/C=C/C[C@H]1C(=O)N2C(C(=O)OC3OC(=O)c4ccccc43)=CC[C@@H]12 (relative stereo) [compound 41, Phthalidyl 6-(3-methoxycarbonyl-2-propen-1-yl)-7-oxo-1-azabicyclo[3,2,0]hept-2-ene-2-carboxylate]
- MIC (Bacillus subtilis A): 25 µg/mL (≈ 65.2 µM)
- MIC (Klebsiella aerogenes A): 50 µg/mL (≈ 130 µM)
- MIC (Shigella sonnei MB 11967): 50 µg/mL (≈ 130 µM)
- MIC (Staph. aureus Russell): ≤ 0.8 µg/mL
- MIC (Staph. aureus 1517): ≤ 0.8 µg/mL
- MIC (Staph. aureus Oxford): ≤ 0.8 µg/mL
- MIC (Strep pyogenes CN10): ≤ 0.8 µg/mL
- MIC (E. coli 0111): 50 µg/mL (≈ 130 µM)
- MIC (Proteus mirabilis C977): 100 µg/mL (≈ 261 µM)
- MIC [5]: 50 µg/mL (≈ 130 µM)

Structure (SMILES): N#C/C=C/C[C@H]1C(=O)N2C(C(=O)OCc3ccccc3)=CC[C@@H]12 (relative stereo) [compound 56, Benzyl 6-(3-cyano-2-propen-1-yl)-7-oxo-1-azabicyclo[3,2,0]hept-2-ene-2-carboxylat]
- MIC (Bacillus subtilis A): 20 µg/mL (≈ 64.9 µM)
- MIC (Citrobacter freundii E8): 20 µg/mL (≈ 64.9 µM)
- MIC (Klebsiella aerogenes A): 20 µg/mL (≈ 64.9 µM)
- MIC (Shigella sonnei MB 11967): 20 µg/mL (≈ 64.9 µM)
- MIC (Staph. aureus Russell): ≤ 2 µg/mL
- MIC (Staph. aureus 1517): ≤ 2 µg/mL
- MIC (Staph. aureus Oxford): ≤ 2 µg/mL
- MIC (Enterobacter cloacae N1): 20 µg/mL (≈ 64.9 µM)
- MIC (Serratia marcescens US20; [9]): 20 µg/mL (≈ 64.9 µM)
- MIC (E. coli 0111): 20 µg/mL (≈ 64.9 µM)
- MIC (Proteus mirabilis C977): 20 µg/mL (≈ 64.9 µM)
- MIC [5]: 20 µg/mL (≈ 64.9 µM)
- MIC (Proteus morganii I 580): 20 µg/mL (≈ 64.9 µM)
- MIC (Proteus rettgeri WM16): 20 µg/mL (≈ 64.9 µM)

Structure (SMILES): N#C/C=C/C[C@H]1C(=O)N2C(C(=O)OC3OC(=O)c4ccccc43)=CC[C@@H]12 (relative stereo) [compound 61, Phthalidyl 6-(3-cyano-2-propen-1-yl)-7-oxo-1-azabicyclo[3,2,0]hept-2-ene-2-carboxylat]
- MIC (Citrobacter freundii E8): 7.3 µg/mL (≈ 20.8 µM)
- MIC (Shigella sonnei MB 11967): 22 µg/mL (≈ 62.8 µM)
- MIC (Staph. aureus Russell): 2.4 µg/mL (≈ 6.85 µM)
- MIC (Staph. aureus Oxford): 2.4 µg/mL (≈ 6.85 µM)
- MIC (Enterobacter cloacae N1): 22 µg/mL (≈ 62.8 µM)
- MIC (Serratia marcescens US20; [9]): 22 µg/mL (≈ 62.8 µM)
- MIC (E. coli 0111): 7.3 µg/mL (≈ 20.8 µM)
- MIC (Proteus mirabilis C977): 66.6 µg/mL (≈ 190 µM)
- MIC (Proteus morganii I 580): 22 µg/mL (≈ 62.8 µM)
- MIC (Proteus rettgeri WM16): 22 µg/mL (≈ 62.8 µM)
- MIC (Proteus vulgaris WO 91): 66.6 µg/mL (≈ 190 µM)
- MIC (Klebsiella aerogenes): 7.3 µg/mL (≈ 20.8 µM)
- MIC (Salmonella typhimurium): 7 µg/mL (≈ 20 µM)

Structure (SMILES): COC(=O)/C=C/CC1C(=O)N2C(C(=O)OCc3ccc([N+](=O)[O-])cc3)=CCC12 (stereo not shown) [53a, p-Nitrobenzyl 6-(3-methoxycarbonyl-2-propen-1-yl)-7-oxo-1-azabicyclo[3,2,0]hept-2-ene-2-carboxylate]
- MIC (Staph. aureus Russell): 2.46 µg/mL (≈ 6.37 µM)
- MIC (Strep pneumoniae): 7.4 µg/mL (≈ 19.2 µM)
- MIC (Strep. pyogenes): 0.8 µg/mL (≈ 2.07 µM)

Structure (SMILES): O=CCC1C(=O)N2C(C(=O)OCc3ccccc3)=CCC12 (stereo not shown) [compound 4, Benzyl 6-(2-oxoethyl)-7-oxo-1-azabicyclo[3,2,0]hept-2-ene-2-carboxylate]
- IC50 [1]: 5.61 µM
- IC50 [2]: > 140 µM
- β-lactamase inhibition I50 [6]: 2.1 µg/mL
- β-lactamase inhibition I50 [7]: > 40 µg/mL
- IC50 [3]: < 4.21 µM
- IC50 [8]: 3.51 µM
- IC50 [4]: > 35.1 µM

Structure (SMILES): COC(=O)/C=C/CC1C(=O)N2C(C(=O)OCc3ccccc3)=CCC12 (stereo not shown) [compound 5, Benzyl 6-(3-methoxycarbonyl-2-propen-1-yl)-7-oxo-1-azabicyclo[3,2,0]hept-2-ene-2-carboxylate]
- MIC (Bacillus subtilis A): 20 µg/mL (≈ 58.6 µM)
- MIC (Citrobacter freundii E8): 20 µg/mL (≈ 58.6 µM)
- MIC (Klebsiella aerogenes A): 20 µg/mL (≈ 58.6 µM)
- MIC (Shigella sonnei MB 11967): 20 µg/mL (≈ 58.6 µM)
- MIC (Staph. aureus Russell): 2 µg/mL (≈ 5.86 µM)
- MIC (Staph. aureus 1517): 2 µg/mL (≈ 5.86 µM)

Structure (SMILES): COC(=O)/C=C/CC1C(=O)N2C(C(=O)OCC(Cl)(Cl)Cl)=CCC12 (stereo not shown) [compound 8, 2,2,2-Trichloroethyl-6-(3-methoxycarbonyl-2-propen-1-yl)-7-oxo-1-azabicyclo[3,2,0]hept-2-ene-2-carboxylate]
- MIC (Bacillus subtilis A): 20 µg/mL (≈ 52.3 µM)
- MIC (Citrobacter freundii E8): 20 µg/mL (≈ 52.3 µM)
- MIC (Klebsiella aerogenes A): 20 µg/mL (≈ 52.3 µM)
- MIC (Shigella sonnei MB 11967): 20 µg/mL (≈ 52.3 µM)
- MIC (Staph. aureus Russell): ≤ 2 µg/mL
- MIC (Staph. aureus 1517): ≤ 2 µg/mL
- MIC (Staph. aureus Oxford): ≤ 2 µg/mL
- MIC (Strep faecalis I): 20 µg/mL (≈ 52.3 µM)
- MIC (Strep pneumoniae): 20 µg/mL (≈ 52.3 µM)
- MIC (Strep pyogenes CN10): 20 µg/mL (≈ 52.3 µM)

Structure (SMILES): O=C(OCc1ccccc1)C1=CC[C@@H]2[C@H](C(O)c3ccccc3)C(=O)N12 (stereo partly shown) [compound 30, Benzyl 6-(1-hydroxy-1-phenylmethyl)-7-oxo-1-azabicyclo[3,2,0]hept-2-ene-2-carboxylate]
- β-lactamase inhibition I50 [6]: 0.27 µg/mL
- IC50 [4]: 0.149 µM

Structure (SMILES): COC(=O)/C=C/CC1C(=O)N2C(C(=O)OCOC(=O)C(C)(C)C)=CCC12 (stereo not shown) [compound 52, Pivaloyloxymethyl 6-(3-methoxycarbonyl-2-propen-1-yl)-7-oxo-1-azabicyclo[3,2,0]hept-2-ene-2-carboxylate]
- MIC (Bacillus subtilis A): 20 µg/mL (≈ 54.7 µM)
- MIC (Klebsiella aerogenes A): 20 µg/mL (≈ 54.7 µM)
- MIC (Shigella sonnei MB 11967): 20 µg/mL (≈ 54.7 µM)
- MIC (Staph. aureus Russell): 2 µg/mL (≈ 5.47 µM)
- MIC (Staph. aureus 1517): 2 µg/mL (≈ 5.47 µM)
- MIC (Staph. aureus Oxford): 2 µg/mL (≈ 5.47 µM)
- MIC (E. coli 0111): 20 µg/mL (≈ 54.7 µM)
- MIC [5]: 20 µg/mL (≈ 54.7 µM)

Structure (SMILES): O=C(OC1OC(=O)c2ccccc21)C1=CCC2CC(=O)N12 (stereo not shown) [compound 81, Phthalidyl 7-oxo-1-azabicyclo[3,2,0]hept-2-ene-2-carboxylate]
- MIC (Bacillus subtilis A): 20 µg/mL (≈ 70.1 µM)
- MIC (Citrobacter freundii E8): 20 µg/mL (≈ 70.1 µM)
- MIC (Klebsiella aerogenes A): 20 µg/mL (≈ 70.1 µM)
- MIC (Staph. aureus Russell): 20 µg/mL (≈ 70.1 µM)
- MIC (Staph. aureus Oxford): 20 µg/mL (≈ 70.1 µM)
- MIC (Enterobacter cloacae N1): 20 µg/mL (≈ 70.1 µM)
- MIC (Serratia marcescens US20; US20, Serratia marcescens VS20, read-out: concentration required to inhibit the growth): 20 µg/mL (≈ 70.1 µM)
- MIC (E. coli 0111): 20 µg/mL (≈ 70.1 µM)
- MIC (Proteus mirabilis C977): 20 µg/mL (≈ 70.1 µM)
- MIC [5]: 20 µg/mL (≈ 70.1 µM)
- MIC (Pseudomonas aeruginosa A): 160 µg/mL (≈ 561 µM)
